US8859494B2, “Spirocyclically substituted 1,3-propane dioxide derivatives, processes for preparation thereof and use thereof as a medicament” (Sanofi, priority 2010, dated 2014)

Target: T1, GPCR GPR40 (Rattus norvegicus, UniProt Q8K3T4)
T1 construct: expressed in transfected cells; host or cells: HEK293
Assay: In vitro FLIPR assay with recombinant cells which express the GPCR GPR40
Type: cell-based
Details: recombinant HEK293 cells expressing GPR40; agonist-induced change in intracellular Ca2+ (Fluo-4, FLIPR); 100% = 10 μM reference agonist linoleic acid
Procedure: In Vitro FLIPR Assay with Recombinant Cells which Express the GPCR GPR40
Function-testing assays were performed by means of the FLIPR technique (“Fluorescence Imaging Plate Reader”, Molecular Devices Corp.). For this purpose, agonist-induced changes were determined in the intracellular concentration of Ca^2+ in recombinant HEK293 cells which expressed the GPCR GPR40.
For the studies, cells were sown into 96-well microtiter plates (60 000 cells/well) and left to grow overnight. The medium was removed and the cells were incubated in buffer which contains the fluorescent dye Fluo-4. After this loading with dye, the cells were washed, test substance was added and changes were measured in the intracellular Ca^2+ concentration in the FLIPR instrument. Results were presented as the percentage change relative to the control (0%: no test substance added; 100%: 10 μM reference agonist linoleic acid added) and used to calculate dose/effect curves, and EC50 values were determined.

T1 sequence (Q8K3T4 whole entry): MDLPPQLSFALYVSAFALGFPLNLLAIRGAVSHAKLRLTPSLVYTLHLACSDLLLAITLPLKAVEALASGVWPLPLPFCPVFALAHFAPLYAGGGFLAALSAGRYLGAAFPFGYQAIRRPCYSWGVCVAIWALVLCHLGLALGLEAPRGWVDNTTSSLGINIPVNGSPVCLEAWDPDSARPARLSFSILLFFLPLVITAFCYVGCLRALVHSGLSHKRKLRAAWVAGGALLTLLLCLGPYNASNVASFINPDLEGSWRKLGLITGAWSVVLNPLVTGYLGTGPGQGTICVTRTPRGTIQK

| SMILES | EC50 [nM] |
| --- | --- |
| CC#CC(CC(=O)O)c1ccc(OCC2(COc3cccc(C(C)(C)C)c3)CC2)cc1 (stereo not drawn) [Example 1, 3-{4-[1-(3-tert-Butylphenoxymethyl)cyclopropylmethoxy]phenyl}hex-4-ynoic acid] | 730 |
| CC#CC(CC(=O)O)c1ccc(OCC2(COc3ccc(C(F)(F)F)cc3)CC2)cc1 (stereo not drawn) [Example 2, 3-{4-[1-(4-Trifluoromethylphenoxymethyl)cyclopropylmethoxy]phenyl}hex-4-ynoic acid] | 370 |
| CC#CC(CC(=O)O)c1ccc(OCC2(COc3cccc(Cl)c3)CC2)cc1 (stereo not drawn) [Example 3, 3-{4-[1-(3-Chlorophenoxymethyl)cyclopropylmethoxy]phenyl}hex-4-ynoic acid] | 290 |
| CC#CC(CC(=O)O)c1ccc(OCC2(COc3ccc(C(F)(F)F)cc3Cl)COC2)cc1 (stereo not drawn) [Example 4, 3-{4-[3-(2-Chloro-4-trifluoromethylphenoxymethyl)oxetan-3-ylmethoxy]phenyl}hex-4-ynoic acid] | 2550 |
| CC#CC(CC(=O)O)c1ccc(OCC2(COc3cccc(C(C)(C)C)c3)CCC2)cc1 (stereo not drawn) [Example 5, 3-{4-[1-(3-tert-Butylphenoxymethyl)cyclobutylmethoxy]phenyl}hex-4-ynoic acid] | 2560 |
| CC#CC(CC(=O)O)c1ccc(OCC2(COc3ccc(C(F)(F)F)cc3)CCC2)cc1 (stereo not drawn) [Example 6, 3-{4-[1-(4-Trifluoromethylphenoxymethyl)cyclobutylmethoxy]phenyl}hex-4-ynoic acid] | 1320 |
| CC#CC(CC(=O)O)c1ccc(OCC2(COc3cccc(C)c3)CCC2)cc1 (stereo not drawn) [Example 7, 3-[4-(1-m-Tolyloxymethylcyclobutylmethoxy)phenyl]hex-4-ynoic acid] | 1540 |
| CC#CC(CC(=O)O)c1ccc(OCC2(COc3ccccc3)CCC2)cc1 (stereo not drawn) [Example 8, 3-[4-(1-Phenoxymethylcyclobutylmethoxy)phenyl]hex-4-ynoic acid] | 450 |
| CC#CC(CC(=O)O)c1ccc(OCC2(COc3cc(C(F)(F)F)cc(C(F)(F)F)c3)CC2)cc1 (stereo not drawn) [Example 9, 3-{4-[1-(3,5-Bis(trifluoromethyl)phenoxymethyl)cyclopropylmethoxy]phenyl}hex-4-ynoic acid] | 1660 |
| CC#CC(CC(=O)O)c1ccc(OCC2(COc3ccccc3)CC2)cc1 (stereo not drawn) [Example 10, 3-[4-(1-Phenoxymethylcyclopropylmethoxy)phenyl]hex-4-ynoic acid] | 70 |
| CC#CC(CC(=O)O)c1ccc(OCC2(COc3cccc(C)c3)CC2)cc1 (stereo not drawn) [Example 11, 3-[4-(1-m-Tolyloxymethylcyclopropylmethoxy)phenyl]hex-4-ynoic acid] | 150 |
| CC#CC(CC(=O)O)c1ccc(OCC2(COc3ccc(C#N)c(Cl)c3)CC2)cc1 (stereo not drawn) [Example 12, 3-{4-[1-(3-Chloro-4-cyanophenoxymethyl)cyclopropylmethoxy]phenyl}hex-4-ynoic acid] | 140 |
| CC#CC(CC(=O)O)c1ccc(OCC2(COc3ccc(C(F)(F)F)nc3)CC2)cc1 (stereo not drawn) [Example 13, 3-{4-[1-(6-Trifluoromethylpyridin-3-yloxymethyl)cyclopropylmethoxy]phenyl}hex-4-ynoic acid] | 710 |
| CC#CC(CC(=O)O)c1ccc(OCC2(COc3ccc(C(F)(F)F)cn3)CC2)cc1 (stereo not drawn) [Example 14, 3-{4-[1-(5-Trifluoromethylpyridin-2-yloxymethyl)cyclopropylmethoxy]phenyl}hex-4-ynoic acid] | 170 |
| CC#CC(CC(=O)O)c1ccc(OCC2(COc3ccc(C(F)(F)F)cc3Cl)CC2)cc1 (stereo not drawn) [Example 15, 3-{4-[1-(2-Chloro-4-trifluoromethylphenoxymethyl)cyclopropylmethoxy]phenyl}hex-4-acid] | 1580 |
| COC(CC(=O)O)c1ccc(OCC2(COc3ccc(C(F)(F)F)cn3)CC2)cc1 (stereo not drawn) [Example 16, 3-Methoxy-3-{4-[1-(5-trifluoromethylpyridin-2-yloxymethyl)cyclopropylmethoxy]phenyl}-propionic acid] | 2460 |
| CC#CC(CC(=O)O)c1ccc(OCC2(COc3ccccc3C)CC2)cc1 (stereo not drawn) [Example 18, 3-[4-(1-o-Tolyloxymethylcyclopropylmethoxy)phenyl]hex-4-ynoic acid] | 60 |
| CC#CC(CC(=O)O)c1ccc(OCC2(COc3ccc(F)cc3)CC2)cc1 (stereo not drawn) [Example 19, 3-{4-[1-(4-Fluorophenoxymethyl)cyclopropylmethoxy]phenyl}hex-4-ynoic acid] | 70 |
| CC#CC(CC(=O)O)c1ccc(OCC2(COc3cccc(F)c3)CC2)cc1 (stereo not drawn) [Example 20, 3-{4-[1-(3-Fluorophenoxymethyl)cyclopropylmethoxy]phenyl}hex-4-ynoic acid] | 70 |
| CC#CC(CC(=O)O)c1ccc(OCC2(COc3ccccc3F)CC2)cc1 (stereo not drawn) [Example 21, 3-{4-[1-(2-Fluorophenoxymethyl)cyclopropylmethoxy]phenyl}hex-4-ynoic acid] | 110 |
| CC#CC(CC(=O)O)c1ccc(OCC2(COc3ccc(F)c(Cl)c3)CC2)cc1 (stereo not drawn) [Example 22, 3-{4-[1-(3-Chloro-4-fluorophenoxymethyl)cyclopropylmethoxy]phenyl}hex-4-ynoic acid] | 330 |
